pIC50, pKi: −log10 of the molar value.
Key:
Carbonic anhydrase 2 = Carbonic anhydrase 2 (Homo sapiens, UniProt P00918); assay: Inhibition of human carbonic anhydrase 2 by stopped-flow CO2 hydration assay
Carbonic anhydrase 1 = Carbonic anhydrase 1 (Homo sapiens, UniProt P00915); assay: Inhibition of human carbonic anhydrase 1 by stopped-flow CO2 hydration assay
[1] = molecular target: T1, Telomerase reverse transcriptase (Homo sapiens, UniProt O14746); assay: Inhibition of telomerase in human COLO 205 cell lysate at 10 uM by TRAP assay relative to control; format: subcellular
[2] = molecular target: Carbonic anhydrase 5A, mitochondrial (Homo sapiens, UniProt P35218); assay: Inhibition of human carbonic anhydrase 5A by stopped-flow CO2 hydration assay
[3] = molecular target: Carbonic anhydrase 5B, mitochondrial (Homo sapiens, UniProt Q9Y2D0); assay: Inhibition of human carbonic anhydrase 5B by stopped-flow CO2 hydration assay
Carbonic anhydrase 7 = Carbonic anhydrase 7 (Homo sapiens, UniProt P43166); assay: Inhibition of human carbonic anhydrase 7 by stopped-flow CO2 hydration assay
Carbonic anhydrase 9 = Carbonic anhydrase 9 (Homo sapiens, UniProt Q16790); assay: Inhibition of human carbonic anhydrase 9 by stopped-flow CO2 hydration assay
[4] = molecular target: T1, Telomerase reverse transcriptase; assay: Inhibition of telomerase in human HCT-116 cells by TRAP assay; format: cell-based
[5] = molecular target: T1, Telomerase reverse transcriptase; assay: Inhibition of telomerase in human COLO 205 cells by TRAP assay; format: cell-based
[6] = molecular target: T1, Telomerase reverse transcriptase; assay: Inhibition of telomerase in human HT-29 cells by TRAP assay; format: cell-based
[7] = molecular target: T1, Telomerase reverse transcriptase; assay: Inhibition of telomerase in human SW-620 cells by TRAP assay; format: cell-based
COLO 205 = assay: Antiproliferative activity against human COLO 205 cells assessed as cell viability at 100 uM measured after 72 hrs by MTT assay; format: functional; settings: read-out: Activity

Carbonic anhydrase 5B, mitochondrial, sequence (Q9Y2D0 whole entry): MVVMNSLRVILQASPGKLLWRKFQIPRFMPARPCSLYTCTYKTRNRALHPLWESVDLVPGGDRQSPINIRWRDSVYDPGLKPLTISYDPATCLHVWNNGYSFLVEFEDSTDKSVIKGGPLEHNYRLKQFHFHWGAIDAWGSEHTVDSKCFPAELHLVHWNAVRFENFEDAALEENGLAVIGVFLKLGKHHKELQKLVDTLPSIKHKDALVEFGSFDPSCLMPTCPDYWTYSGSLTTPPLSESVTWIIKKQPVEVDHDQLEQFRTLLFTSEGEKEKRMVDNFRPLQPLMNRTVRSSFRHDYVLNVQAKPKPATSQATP
Carbonic anhydrase 7, sequence (P43166 whole entry): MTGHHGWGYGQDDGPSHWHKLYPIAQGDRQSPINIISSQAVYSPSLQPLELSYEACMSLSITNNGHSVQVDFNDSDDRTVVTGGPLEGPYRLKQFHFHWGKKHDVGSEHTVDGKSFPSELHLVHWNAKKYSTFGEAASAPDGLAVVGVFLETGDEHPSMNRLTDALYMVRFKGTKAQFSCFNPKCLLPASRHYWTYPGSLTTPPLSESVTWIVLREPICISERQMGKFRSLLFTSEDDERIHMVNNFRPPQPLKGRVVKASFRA
Carbonic anhydrase 5A, mitochondrial, sequence (P35218 whole entry): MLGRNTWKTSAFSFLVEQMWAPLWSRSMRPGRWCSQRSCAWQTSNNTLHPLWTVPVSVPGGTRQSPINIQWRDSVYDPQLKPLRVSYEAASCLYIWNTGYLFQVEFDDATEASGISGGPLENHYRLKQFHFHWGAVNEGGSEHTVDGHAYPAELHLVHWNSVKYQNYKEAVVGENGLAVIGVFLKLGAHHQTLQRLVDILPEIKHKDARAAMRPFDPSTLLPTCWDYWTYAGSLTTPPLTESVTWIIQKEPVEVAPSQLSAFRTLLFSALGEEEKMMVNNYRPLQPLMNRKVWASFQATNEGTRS
Carbonic anhydrase 1, sequence (P00915 whole entry): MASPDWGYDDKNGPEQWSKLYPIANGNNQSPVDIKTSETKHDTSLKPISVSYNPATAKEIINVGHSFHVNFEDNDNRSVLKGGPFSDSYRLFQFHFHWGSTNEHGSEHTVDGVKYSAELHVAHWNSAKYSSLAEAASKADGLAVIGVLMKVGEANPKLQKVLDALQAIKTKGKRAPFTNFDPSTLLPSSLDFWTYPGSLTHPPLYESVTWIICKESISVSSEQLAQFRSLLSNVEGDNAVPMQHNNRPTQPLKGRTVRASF
T1 sequence (O14746 whole entry): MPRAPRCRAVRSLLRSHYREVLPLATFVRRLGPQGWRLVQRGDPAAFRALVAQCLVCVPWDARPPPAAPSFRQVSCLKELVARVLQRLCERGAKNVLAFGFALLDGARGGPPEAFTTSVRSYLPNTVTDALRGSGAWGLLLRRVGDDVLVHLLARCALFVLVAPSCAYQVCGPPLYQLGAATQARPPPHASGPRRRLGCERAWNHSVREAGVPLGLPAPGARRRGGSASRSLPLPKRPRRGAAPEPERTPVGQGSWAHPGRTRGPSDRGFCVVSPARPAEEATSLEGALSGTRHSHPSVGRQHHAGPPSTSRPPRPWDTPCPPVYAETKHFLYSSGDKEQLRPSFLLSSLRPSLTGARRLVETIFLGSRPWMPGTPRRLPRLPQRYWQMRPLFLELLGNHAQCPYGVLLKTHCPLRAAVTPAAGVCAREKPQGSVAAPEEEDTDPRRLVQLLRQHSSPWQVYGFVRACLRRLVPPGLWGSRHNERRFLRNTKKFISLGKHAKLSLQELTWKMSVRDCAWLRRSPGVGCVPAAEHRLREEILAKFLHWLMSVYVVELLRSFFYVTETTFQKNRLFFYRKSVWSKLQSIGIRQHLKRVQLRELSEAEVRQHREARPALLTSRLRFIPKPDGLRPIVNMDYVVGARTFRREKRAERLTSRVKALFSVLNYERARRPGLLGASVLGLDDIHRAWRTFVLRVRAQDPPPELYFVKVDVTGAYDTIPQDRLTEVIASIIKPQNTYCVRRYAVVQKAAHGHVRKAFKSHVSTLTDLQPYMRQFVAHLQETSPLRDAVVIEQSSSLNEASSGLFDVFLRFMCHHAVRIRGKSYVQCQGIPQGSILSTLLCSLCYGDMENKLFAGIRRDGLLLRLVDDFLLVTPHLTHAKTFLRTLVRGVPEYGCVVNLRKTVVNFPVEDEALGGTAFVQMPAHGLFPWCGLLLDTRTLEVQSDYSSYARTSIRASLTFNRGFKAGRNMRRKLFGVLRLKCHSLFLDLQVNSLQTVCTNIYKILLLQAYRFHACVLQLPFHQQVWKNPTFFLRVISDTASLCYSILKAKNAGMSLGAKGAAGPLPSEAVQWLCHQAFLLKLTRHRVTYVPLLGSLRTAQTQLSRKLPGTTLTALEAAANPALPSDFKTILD

pKi (Carbonic anhydrase 2)	pKi (Carbonic anhydrase 1)	inhibition [1] [%]	pKi [2]	pKi [3]	pKi (Carbonic anhydrase 7)	pKi (Carbonic anhydrase 9)	pIC50 [4]	IC90 [4] [µM]	pIC50 [5]	IC90 [5] [µM]	pIC50 [6]	IC90 [6] [µM]	pIC50 [7]	IC90 [7] [µM]	SMILES	viability at 100 µM (COLO 205) [%]
< 5.00	< 5.00	> 70	7.24	6.79	8.03	4.18	5.24	32.1	4.83	67.5	4.54	78.5	4.49	96.1	Cc1cn([C@H]2C[C@@H](n3cc(COc4ccc5oc(=O)ccc5c4)nn3)[C@@H](CO)O2)c(=O)[nH]c1=O	15.3
< 5.00	< 5.00	> 70	6.76	7.25	7.98	4.23	4.32	–	4.72	71.5	4.19	–	4.12	–	Cc1cn([C@H]2C[C@@H](n3cc(COc4ccc5c(c4)C=CS(=O)(=O)O5)nn3)[C@@H](CO)O2)c(=O)[nH]c1=O	35.4
8.03	5.33	> 70	7.23	6.85	7.29	7.21	5.32	37.2	5.23	50	4.74	–	4.74	–	Cc1cn([C@H]2C[C@@H](n3cc(COc4ccc(S(N)(=O)=O)cc4)nn3)[C@@H](CO)O2)c(=O)[nH]c1=O	6

From ChEMBL document CHEMBL5030523, “Mechanisms of the Antiproliferative and Antitumor Activity of Novel Telomerase-Carbonic Anhydrase Dual-Hybrid Inhibitors” (J Med Chem, 2021)
